Laboratory results from US7414068B2, “Benzopyran derivatives substituted with secondary amines including tetrazole, method for the preparation thereof and pharmaceutical compositions containing them” (Dongbu Hannong Chemical Co., Ltd., priority 2002, dated 2008).
Like-named read-outs stand apart in the source and are kept apart here.

Legend:
[1] = system: isolated rat aorta; assay: Vasodilating effect on blood vessel excised from rats (methoxamine-constricted aorta); settings: isolated rat aorta constricted with methoxamine (3 μM); read-out: Concentration for inhibition of constriction induced by methoxamine in rat arota (IC50)
Outline: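 Endothelium-denuded rat thoracic aortic rings (3 mm) in Krebs-Henseleit buffer, 37 °C, carbogen, 2 g resting tension, primed twice with 10^−5 M phenylephrine. After maximal contraction with 3×10^−6 M methoxamine, compounds added cumulatively at 1, 3, 10, 30 μM. IC50 = concentration giving 50% relaxation of maximal constriction, by linear regression.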

[2] = system: cortical neuron cells; assay: Protective effect on iron-induced neuronal cell injury (LDH release); assay type: cell-based; settings: FeSO4 50 μM; for IC50: LDH
Outline: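 Embryonic (day 17–18) cortical neurons cultured 7–9 days, serum lowered to 0.2%, pretreated 30 min with compound (DMSO ≤0.1%), then exposed to 50 μM FeSO4 for 24 h. LDH released to medium measured; protection expressed as LDH reduction versus vehicle control.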

[3] = system: Sprague-Dawley Rat; settings: 30 mg/kg; for Infarction volume Medium(%): four times to abdominal cavity, 24 hours after operation
Protocol: Male rat (Sprague-Dawley Rat, 350±50 g, Samyook) was anesthetized by administration of Pentobarbital sodium 40 mg/Kg. PE-19 tubing was inserted to the femoral vein and the artery, left carotid artery was exposed. Before the operation, heparin sulfate 20 μg was injected to the peritoneal cavity. Blood pressure measuring device was inserted to the femoral artery for the continuous measurement of arterial pressure. Blood (10 ml) was collected from the femoral vein to decrease blood pressure to 30 mmHg. If blood pressure is not decreased to 100 mmHg by collection of blood (7 ml), it is evaluated that sympathetic tone is very high.
With blood pressure maintaining to be 30 mmHg, left carotid artery was closed by aneurysm clamp for 20 min to induce ischemia. Reperfusion was accomplished by the collected blood and 0.84% bicarbonate saline (5 ml). Body temperature of rats was constantly maintained to be 37±0.5° C., by using thermal blanket and incandescent light bulbs during the ischemia. After the operation, in recovering period, body temperature was constantly maintained for more than 2 hours. If rats were recovered entirely, they were transferred to animal laboratory. Condition of animal laboratory, such as temperature, humidity and light cycle was constantly maintained to be 27° C., 60% and […], respectively.
After 24 hours from the operation, rats were sacrificed. Then brain was enucleated from rat within 3 min. Enucleated brain was excised on the ice at the interval 2 mm by using brain matrix to produce six coronal sections. The said coronal sections were dyed in 2% 2,3,5-triphenyltetrazolium chloride solution at 37° C. for 30 min. The said dyed coronal section was developed and printed. Thereafter, the ratio of necrosis area to brain area was measured by using Image Analyzer.
Otherwise, test compounds were four times administrated to abdominal cavity at a dose 30 mg/kg. […]
The protective effect on brain damage induced by brain ischemia-reperfusion was evaluated by calculating reduction of necrosis area to that of brain for a control group.

## COC(OC)[C@@]1(C)Oc2ccc(N)cc2[C@H](N(Cc2nnn(C)n2)c2ccc(Cl)cc2)[C@H]1O [Example 11, (2S,3R,4S)-6-amino-4-[N-(4-chlorophenyl)-N-(2-methyl-2H-tetrazol-5-ylmethyl)amino]-3-hydroxy-2-methyl-2-dimethoxymethyl-3,4-dihydro-2H-1-benzopyran]
[1]
  IC50: > 30 µM
[2]; 30 μM compound, 24 hours, LDH reduction vs control
  protective effect on neuron cell: Inhibition (%, 30 μM compound addition): 93%
[2]; Cortical neurone, 24 h
  IC50: < 2 µM
[2]; 24 hours
  IC50: 2 µM
[3]
  Infarction volume Medium(%): 21.5 ± 2.6%
[3]; listed as compound of formula 11
  Infarction volume Medium(%): 21.5%
[3]; relative to control group
  Infarction volume Decrease(%): 46.3%
